{
  "source": "ChEMBL document CHEMBL1125688",
  "about": "“The synthesis and potassium channel blocking activity of some (4-methanesulfonamidophenoxy)propanolamines as potential class III antiarrhythmic agents” (1991)",
  "key": {"[1]": {"species": "Cavia porcellus", "experiment": "Compound was evaluated for the increase in duration or cardiac APD (action potential duration) at 90% repolarization, using isolated guinea pig ventricular myocytes at concentration of 33000 nM; no detectable change", "assay_type": "functional", "conditions": "Heart, Ventricular myocyte"}, "[2]": {"species": "Cavia porcellus", "experiment": "Compound was evaluated for the increase in duration or cardiac APD (action potential duration) at 90% repolarization, using isolated guinea pig ventricular myocytes at concentration of 10000 nM; no detectable change", "assay_type": "functional", "conditions": "Heart, Ventricular myocyte"}, "[3]": {"species": "Cavia porcellus", "experiment": "Compound was evaluated for the increase in duration or cardiac APD (action potential duration) at 90% repolarization, using isolated guinea pig ventricular myocytes at concentration of 10000 nM; No detectable change", "assay_type": "functional", "conditions": "Heart, Ventricular myocyte"}, "[4]": {"species": "Cavia porcellus", "experiment": "Compound was evaluated for the increase in duration or cardiac APD (action potential duration) at 90% repolarization, using isolated guinea pig ventricular myocytes at concentration of 33000 nM; No detectable change", "assay_type": "functional", "conditions": "Heart, Ventricular myocyte"}, "[5]": {"species": "Cavia porcellus", "experiment": "Compound was evaluated for the increase in duration or cardiac APD (action potential duration) at 90% repolarization, using isolated guinea pig ventricular myocytes at concentration of 1000 nM", "assay_type": "functional, Heart, Ventricular myocyte", "design": "unit not given here"}, "[6]": {"species": "Cavia porcellus", "experiment": "Compound was evaluated for the increase in duration or cardiac APD (action potential duration) at 90% repolarization, using isolated guinea pig ventricular myocytes at concentration of 10000 nM", "assay_type": "functional, Heart, Ventricular myocyte", "design": "unit not given here"}, "[7]": {"species": "Cavia porcellus", "experiment": "Compound was evaluated for the increase in duration or cardiac APD (action potential duration) at 90% repolarization, using isolated guinea pig ventricular myocytes at concentration of 10 nM", "assay_type": "functional, Heart, Ventricular myocyte"}, "[8]": {"species": "Cavia porcellus", "experiment": "Compound was evaluated for the increase in duration or cardiac APD (action potential duration) at 90% repolarization, using isolated guinea pig ventricular myocytes at concentration of 100 nM", "assay_type": "functional, Heart, Ventricular myocyte", "design": "unit not given here"}, "[9]": {"species": "Cavia porcellus", "experiment": "Compound was evaluated for the increase in duration or cardiac APD (action potential duration) at 90% repolarization, using isolated guinea pig ventricular myocytes at concentration of 1 nM", "assay_type": "functional, Heart, Ventricular myocyte"}, "[10]": {"species": "Cavia porcellus", "experiment": "Compound was evaluated for the increase in duration or cardiac APD (action potential duration) at 90% repolarization, using isolated guinea pig ventricular myocytes at concentration of 33000 nM", "assay_type": "functional, Heart, Ventricular myocyte"}, "[11]": {"species": "Cavia porcellus", "experiment": "Compound was evaluated for the increase in duration or cardiac APD (action potential duration) at 90% repolarization, using isolated guinea pig ventricular myocytes at concentration of 50 nM", "assay_type": "functional, Heart, Ventricular myocyte"}, "[12]": {"species": "Cavia porcellus", "experiment": "Compound was evaluated for the increase in duration or cardiac APD (action potential duration) at 90% repolarization, using isolated guinea pig ventricular myocytes at concentration of 50000 nM; no detectable change", "assay_type": "functional", "conditions": "Heart, Ventricular myocyte"}, "[13]": {"species": "Cavia porcellus", "experiment": "Compound was evaluated for the increase in duration or cardiac APD (action potential duration) at 90% repolarization, using isolated guinea pig ventricular myocytes at concentration of 50000 nM", "assay_type": "functional, Heart, Ventricular myocyte"}, "[14]": {"species": "Cavia porcellus", "experiment": "Compound was evaluated for the increase in duration or cardiac APD (action potential duration) at 90% repolarization, using isolated guinea pig ventricular myocytes at concentration of 250 nM", "assay_type": "functional, Heart, Ventricular myocyte"}, "[15]": {"species": "Cavia porcellus", "experiment": "Compound was evaluated for the increase in duration or cardiac APD (action potential duration) at 90% repolarization, using isolated guinea pig ventricular myocytes at concentration of 75000 nM", "assay_type": "functional, Heart, Ventricular myocyte"}},
  "data": [
    {"smiles": "CN(c1ccc(OCC(O)CNCCc2ccccc2)cc1)S(C)(=O)=O", "note": "(stereo unspecified)", "values": [
      {"measurement": "Delta APD90", "setting": "[1]", "result": "No detectable change"},
      {"measurement": "Delta APD90", "setting": "[2]", "result": "No detectable change"}
    ]},
    {"smiles": "CC(C)NCC(O)COc1ccc(N(C)S(C)(=O)=O)cc1", "note": "(stereo unspecified)", "values": [
      {"measurement": "Delta APD90", "setting": "[3]", "result": "No detectable change"},
      {"measurement": "Delta APD90", "setting": "[4]", "result": "No detectable change"}
    ]},
    {"smiles": "CCN(CC)CC(O)COc1ccc(NS(C)(=O)=O)cc1", "note": "(stereo unspecified)", "values": [
      {"measurement": "Delta APD90", "setting": "[5]", "result": 25},
      {"measurement": "Delta APD90", "setting": "[6]", "result": 85}
    ]},
    {"smiles": "CN(CCc1ccc(Cl)c(Cl)c1)CC(O)COc1ccc(NS(C)(=O)=O)cc1", "note": "(stereo unspecified)", "values": [
      {"measurement": "Delta APD90", "setting": "[7]", "result": 42},
      {"measurement": "Delta APD90", "setting": "[8]", "result": 85},
      {"measurement": "Delta APD90", "setting": "[9]", "result": 20}
    ]},
    {"smiles": "CC(C)NCC(O)COc1ccc(NS(C)(=O)=O)cc1", "note": "(stereo unspecified)", "values": [
      {"measurement": "Delta APD90", "setting": "[2]", "result": "No detectable change"},
      {"measurement": "Delta APD90", "setting": "[10]", "result": 33}
    ]},
    {"smiles": "CS(=O)(=O)Nc1ccc(OCC(O)CN2CCC(c3ccc(C(F)(F)F)cc3)CC2)cc1", "note": "(stereo unspecified)", "values": [
      {"measurement": "Delta APD90", "setting": "[7]", "result": 100},
      {"measurement": "Delta APD90", "setting": "[9]", "result": 40},
      {"measurement": "Delta APD90", "setting": "[11]", "result": 100}
    ]},
    {"smiles": "CNCC(O)COc1ccc(NS(C)(=O)=O)cc1", "note": "(stereo unspecified)", "values": [
      {"measurement": "Delta APD90", "setting": "[12]", "result": "No detectable change"},
      {"measurement": "Delta APD90", "setting": "[2]", "result": "No detectable change"}
    ]},
    {"smiles": "COc1ccc(CCN(CC(O)COc2ccc(NS(C)(=O)=O)cc2)C(C)C)cc1OC", "note": "(stereo unspecified)", "values": [
      {"measurement": "Delta APD90", "setting": "[8]", "result": 65},
      {"measurement": "Delta APD90", "setting": "[5]", "result": 100}
    ]},
    {"smiles": "CS(=O)(=O)Nc1ccc(OCC(O)CN2CCN(c3ccccc3)CC2)cc1", "note": "(stereo unspecified)", "values": [
      {"measurement": "Delta APD90", "setting": "[5]", "result": 78},
      {"measurement": "Delta APD90", "setting": "[6]", "result": 100}
    ]},
    {"smiles": "CS(=O)(=O)Nc1ccc(OCC(O)CN2CCC(c3ccc(Cl)cc3)CC2)cc1", "note": "(stereo unspecified)", "values": [
      {"measurement": "Delta APD90", "setting": "[7]", "result": 100},
      {"measurement": "Delta APD90", "setting": "[9]", "result": 50}
    ]},
    {"smiles": "CC(C)NCC(O)c1ccc(NS(C)(=O)=O)cc1", "note": "(stereo unspecified) [SOTALOL]", "values": [
      {"measurement": "Delta APD90", "setting": "[13]", "result": 30},
      {"measurement": "Delta APD90", "setting": "[6]", "result": 75}
    ]},
    {"smiles": "CN(CCCc1ccccc1)CC(O)COc1ccc(NS(C)(=O)=O)cc1", "note": "(stereo unspecified)", "values": [
      {"measurement": "Delta APD90", "setting": "[8]", "result": 70}
    ]},
    {"smiles": "CS(=O)(=O)Nc1ccc(OCC(O)CNCCc2ccccc2)cc1", "note": "(stereo unspecified)", "values": [
      {"measurement": "Delta APD90", "setting": "[6]", "result": 80}
    ]},
    {"smiles": "CS(=O)(=O)Nc1ccc(OCC(O)CNCCc2ccc(Cl)cc2)cc1", "note": "(stereo unspecified)", "values": [
      {"measurement": "Delta APD90", "setting": "[6]", "result": 90}
    ]},
    {"smiles": "COc1ccc(CCN(C)CC(O)COc2ccc(NS(C)(=O)=O)cc2)cc1OC", "note": "(stereo unspecified)", "values": [
      {"measurement": "Delta APD90", "setting": "[8]", "result": 40},
      {"measurement": "Delta APD90", "setting": "[5]", "result": 100}
    ]},
    {"smiles": "CN(CCc1ccccc1)CC(O)COc1ccc(NS(C)(=O)=O)cc1", "note": "(stereo unspecified)", "values": [
      {"measurement": "Delta APD90", "setting": "[8]", "result": 48},
      {"measurement": "Delta APD90", "setting": "[5]", "result": 88}
    ]},
    {"smiles": "CN(C/C=C/c1ccccc1)CC(O)COc1ccc(NS(C)(=O)=O)cc1", "note": "(stereo unspecified)", "values": [
      {"measurement": "Delta APD90", "setting": "[8]", "result": 100},
      {"measurement": "Delta APD90", "setting": "[11]", "result": 50}
    ]},
    {"smiles": "CN(CCOc1ccc(NS(C)(=O)=O)cc1)CCc1ccc(NS(C)(=O)=O)cc1", "note": "[DOFETILIDE]", "values": [
      {"measurement": "Delta APD90", "setting": "[8]", "result": 63},
      {"measurement": "Delta APD90", "setting": "[14]", "result": 100},
      {"measurement": "Delta APD90", "setting": "[11]", "result": 23}
    ]},
    {"smiles": "COc1ccc(CCNCC(O)COc2ccc(NS(C)(=O)=O)cc2)cc1OC", "note": "(stereo unspecified)", "values": [
      {"measurement": "Delta APD90", "setting": "[5]", "result": 15},
      {"measurement": "Delta APD90", "setting": "[6]", "result": 80}
    ]},
    {"smiles": "CS(=O)(=O)Nc1ccc(OCC(O)CN2CCC(c3ccccc3)CC2)cc1", "note": "(stereo unspecified)", "values": [
      {"measurement": "Delta APD90", "setting": "[8]", "result": 48},
      {"measurement": "Delta APD90", "setting": "[5]", "result": 100}
    ]},
    {"smiles": "CC(C)(C)NCC(O)COc1ccc(NS(C)(=O)=O)cc1", "note": "(stereo unspecified)", "values": [
      {"measurement": "Delta APD90", "setting": "[15]", "result": 75},
      {"measurement": "Delta APD90", "setting": "[13]", "result": 75},
      {"measurement": "Delta APD90", "setting": "[10]", "result": 40}
    ]},
    {"smiles": "CS(=O)(=O)Nc1ccc(OCC(O)CN2CCc3ccccc3C2)cc1", "note": "(stereo unspecified)", "values": [
      {"measurement": "Delta APD90", "setting": "[8]", "result": 60}
    ]},
    {"smiles": "O=C(O)c1ccc(OCC(O)CN2CCC(c3ccccc3)CC2)cc1", "note": "(stereo unspecified)", "values": [
      {"measurement": "Delta APD90", "setting": "[5]", "result": 36}
    ]},
    {"smiles": "CS(=O)(=O)Nc1cccc(OCC(O)CN2CCC(c3ccccc3)CC2)c1", "note": "(stereo unspecified)", "values": [
      {"measurement": "Delta APD90", "setting": "[5]", "result": 48}
    ]}
  ]
}
